Data from patent US12421179B2, “Production method for radiolabeled aryl compound” (OSAKA UNIVERSITY, priority 2017, dated 2025).

What was measured:
[1] = system: C6 glioma cell derived from rat; assay: Glioma cell uptake experiment; type: cell-based; conditions: for cell uptake reduced by LAT1 inhibitor (BCH) to fraction of uptake: 100 mM BCH addition group; for cell uptake reduced by competitive inhibitor (Phe) to fraction of uptake: 1% Phe addition group; for specificity of cell uptake (via LAT1): concluded from Phe and BCH inhibition; for cell uptake (amount of radioactivity taken up intracellularly): inhibitor-free group, amino acid-free HBSS medium
Protocol: The concentration of the 4-211At-L-phenylalanine (4-^211At-Phe) solution prepared in Example 2 and the 3-^211At-D,L-phenylalanine (3-^211At-Phe) solution prepared in Example 7 were each adjusted to 5 MBq/2 mg·ml. C6 glioma cell derived from rat was seeded on each well of 24-well plate by 5×10^5 cells/well, is and the cells were used in the next day's experiment (cell number: about 1×10^6 cells/well). Before the experiment, the medium was replaced with an amino acid-free HBSS medium (0.5 ml/well). 4-^211At-Phe or 3-^211At-Phe was added to each well of the plate by 10 μl, and the wells were divided into three groups of inhibitor-free group, 1% Phe addition group (competitive inhibitor) and 100 mM BCH addition group (LAT1 inhibitor), and incubated at 37° C. for 30 minutes or 60 minutes. After the incubation, the culture solution was removed, and the cells were washed with PBS, and lysed, and the amount of radioactivity taken up intracellularly was measured. […] Moreover, the cell uptake after 60 minutes was reduced, compared to that after 30 minutes. The competitive inhibitor (Phe) reduced the cell uptake of 4-^211At-Phe and 3-^211At-Phe to ½ to ⅓, and LAT1 inhibitor (BCH) reduced the cell uptake of 4-^211At-Phe and 3-^211At-Phe to ¼ to ⅛. […] Especially, the cell uptake of 3-^211At-Phe was more than that of 4-^211At-Phe, and therefore, 3-211At-Phe can be further expected for the above-mentioned application.

[2] = system: C6 glioma tumor; assay: SPECT imaging of C6 glioma-transplanted rat; type: in vivo; conditions: 1 MBq, tail vein; 30 minutes and 3 hours after administration; tumor in both flanks
Protocol: The 4-^211At-L-phenylalanine (4-^211At-Phe) (1 MBq) prepared in Example 2 was administered to the tail vein of the glioma-transplanted rat, and the rat was imaged by SPECT camera (E-cam, Siemens). In both images, the is accumulation of 4-^211At-Phe in the tumor (both flanks, indicated by arrows in the figure) was observed. Therefore, 4-^211At-Phe can be expected to be applied to RI internal therapy or diagnosis for cancer.

Compound | cell uptake reduced by LAT1 inhibitor (BCH) to fraction of uptake [1] | cell uptake reduced by competitive inhibitor (Phe) to fraction of uptake [1] | cell uptake after 60 minutes compared to that after 30 minutes ([1]; C6 glioma cells, 37° C.) | cell uptake compared with 4-^211At-Phe ([1]; C6 glioma cells, 37° C., 30 or 60 minutes) | specificity of cell uptake (via LAT1) [1] | cell uptake (amount of radioactivity taken up intracellularly) ([1]; 37° C., 30 or 60 minutes) | uptake by cancer cells (general statement) ([1]; summary statement in the description) | accumulation in the tumor (SPECT images) [2]
NC(Cc1cccc([211At])c1)C(=O)O (racemic) [3-^211At-Phe, 3-^211At-D,L-phenylalanine] | ¼ to ⅛ | ½ to ⅓ | reduced | slightly more than that of 4-^211At-Phe | specifically taken up by the cells via LAT1 | taken up by the cell | taken up in large amounts by cancer cells | –
N[C@@H](Cc1ccc([211At])cc1)C(=O)O [4-^211At-Phe, 4-^211At-L-phenylalanine] | ¼ to ⅛ | ½ to ⅓ | reduced | – | specifically taken up by the cells via LAT1 | taken up by the cell | – | observed
